The text below walks through data of the METLIN SMRT retention time set (Domingo-Almenara et al. 2019).

Each structure is given as a SMILES string.

The data set is described as follows: gradient 5% acetonitrile 3 min, to 50% in 2 min, to 85% in 15 min, held 3 min, 100 µL/min. To be noted: column: Zorbax Extend-C18 2.1 x 50 mm; eluents: water / acetonitrile, 0.1% formic acid. An outline of the steps: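 Over 3 months, pure standards in mixtures of ~100 molecules were run by HPLC coupled to a quadrupole time-of-flight mass spectrometer in positive and negative ionization mode. The column was a Zorbax Extend-C18 (2.1 × 50 mm, 1.8 μm) at 100 μL/min, eluted with water and acetonitrile each holding 0.1% formic acid, with 40 μL dead and 900 μL dwell volumes. Retention time was determined from adduct peaks chosen by software and checked manually.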
The compound `CCCc1cc(C2CCCN2C(=O)NCCc2ccccc2)no1` (configuration not stated) displayed an RP-LC retention time of 874 s.

`O=C(Cn1cc(S(=O)(=O)N2CCCCCC2)ccc1=O)N1CCCc2ccccc21` displayed an RP-LC retention time of 900 s.

As for `COc1cc(C(=O)NC(CC(C)C)C(=O)Nc2nc3ccccc3[nH]2)cc(OC)c1OC` (configuration not stated), the RP-LC retention time turned out to be 733 s.

The compound `COc1ccc(OCc2nnc3sc(-c4ccccn4)nn23)cc1` returned an RP-LC retention time of 823 s.

`CCN1C(=O)CCc2cc(NC(=O)c3ccsc3)ccc21` displayed an RP-LC retention time of 715 s.

The compound `CCC1=CC2CN3CCc4c([nH]c5ccccc45)[C@@](C(=O)OC)(C2)C13` had an RP-LC retention time of 681 s.

With `CS(=O)(=O)NC1CCN(C(=O)C2CCCC2)C1` (configuration not stated), the RP-LC retention time worked out at 691 s.

Consider `CN(C)C[C@@H]1CN(Cc2ccccc2)C[C@H]1NS(=O)(=O)c1cccnc1`, for which the RP-LC retention time came out at 537 s.

`O=C(Cc1ccccc1Cl)N1CCC2(C1)C(=O)Nc1ccccc12` (configuration not stated): the RP-LC retention time was 758 s.

Compound `Cc1cc2[nH]c(C(=O)Nc3ccc(F)c(F)c3F)c(CN3CCOCC3)c2s1` yielded an RP-LC retention time of 743 s.

The compound `CCc1nnc2ccc(-c3noc(-c4cccc(F)c4)n3)cn12` had an RP-LC retention time of 936 s.

As for `CC1=C(c2ccccc2)S(=O)(=O)N=C1N1CCCN(C(=O)C2CCCO2)CC1` (configuration not stated), the RP-LC retention time was 702 s.

The compound `COc1cccc(N2CCN(C3=Nc4c(F)cccc4[C@H](CC(=O)O)N3c3cc(C(F)(F)F)ccc3OC)CC2)c1` showed an RP-LC retention time of 899 s.

For `CC(C)c1ccc(S(=O)(=O)NCC(c2cccnc2)c2c[nH]c3ccccc23)cc1` (configuration not stated), the RP-LC retention time worked out at 772 s.

As to `CC(C)Oc1ccc(CNC(=O)C2CCN(S(=O)(=O)c3ccc4c(c3)NC(=O)CO4)CC2)cc1`, the RP-LC retention time is 821 s.

Compound `CCOC(=O)c1noc2ncnc(NCC3CCN(Cc4cccc(Cl)c4)CC3)c12` gave an RP-LC retention time of 603 s.

`Cc1cccc(CNC(=O)c2cc3n(n2)CC(C)(C(=O)NCc2ccccc2)N(C)C3=O)c1` (configuration not stated): the RP-LC retention time is 732 s.

As for `Cc1ccc(NC(=O)Cn2nc3c(N4CCCCCC4)nccn3c2=O)cc1F`, the RP-LC retention time was 739 s.

In turn, `Cc1ccc(N2N=C(C(=O)N3CCN(CC(C)C)CC3)S(=O)(=O)c3cccnc32)cc1` registered an RP-LC retention time of 674 s.

As for `CCOc1nc2ccccc2nc1N1CCCC(C(=O)Nc2cccc(C(F)(F)F)c2)C1` (configuration not stated), the RP-LC retention time stood at 1370 s.

Consider `COc1ccc(-c2cc(C(F)(F)F)n3ncc(C(=O)O)c3n2)cc1OC`, for which the RP-LC retention time stood at 777 s.

With `O=C1CCCCC(CNC(=O)c2cccs2)N1` (configuration not stated), the RP-LC retention time was found to be 616 s.

On to `Cc1cccc(-c2nc(-c3ccc(S(=O)(=O)N4CCOCC4)cc3)no2)c1`, for which the RP-LC retention time is 1080 s.

The compound `COc1ccc(-c2nnc(COc3ccc(NC(=O)Cc4cccs4)cc3)o2)cc1` gave an RP-LC retention time of 900 s.

On to `Cc1ccc(S(=O)(=O)CCc2noc(C(=O)NCCc3ccc(S(N)(=O)=O)cc3)n2)cc1`, for which the RP-LC retention time amounted to 724 s.

In turn, `CCCNC(=O)c1cn(CCC)nc1S(=O)(=O)N1CCN(c2ccccc2OCC)CC1` registered an RP-LC retention time of 1080 s.

`CC(C)OCCCNC(=O)CCc1c(-c2ccc(Br)cc2)nc2ccccn12` registered an RP-LC retention time of 652 s.

For the compound `COc1ccc(NC(=O)N2CCN(c3cc(-c4ccc(OC)c(OC)c4)ncn3)CC2)cc1`, the RP-LC retention time stood at 620 s.

Take `CN1C(=O)c2cc(S(=O)(=O)Nc3ccc(Cl)cc3F)ccc2Oc2cccnc21`: the RP-LC retention time was found to be 962 s.

`O=C(NCCC1=CCCCC1)c1nc(-c2ccnc(N3CCOCC3)c2)no1` displayed an RP-LC retention time of 962 s.

On to `CC(C)(C)c1noc(-c2ccnc(-n3cnc(C(=O)NC4CCCC4)c3)c2)n1`, for which the RP-LC retention time amounted to 1020 s.

In the case of `Cn1cc(CN2CCn3c(nnc3[C@@H]3C[C@@H](O)CN3Cc3cccnc3)C2)c2ccccc21`, the RP-LC retention time was 575 s.

Turning to `Cc1oc(-c2ccc(C(=O)NCCN3CCOCC3)cc2)nc1CN1CCc2ccccc21`, the RP-LC retention time worked out at 690 s.

`CS(=O)(=O)N1CCC(CC(=O)NC2CCCCC2)C1` (configuration not stated): the RP-LC retention time was found to be 668 s.

The compound `Cc1ccc(C)c(NC(=O)NCCn2c(-c3ccncc3)nc3cccnc32)c1` registered an RP-LC retention time of 638 s.

In turn, `Cc1ccccc1C(=O)NCCc1cn(CC(C)C)c2ncccc12` showed an RP-LC retention time of 808 s.

`O=C(CCc1nnc2c3cc(-c4ccccc4)nn3ccn12)N1CCN(C(=O)c2ccco2)CC1` displayed an RP-LC retention time of 679 s.

`COc1ccccc1N1CCN(C(=O)C2CCN(c3ncnc4c3oc3ccccc34)CC2)CC1` returned an RP-LC retention time of 765 s.

`O=C(NCC1CCCO1)c1cccn1Cc1noc(-c2ccc(Cl)cc2)n1` (configuration not stated) came in with an RP-LC retention time of 943 s.

In turn, `Cn1c(CNC(=O)C2CCc3nc(N4CCCC4)ncc3C2)nc2ccccc21` (configuration not stated) came in with an RP-LC retention time of 529 s.

As for `O=C(NCc1ccc(Br)cc1)C1CCCN(c2nccnc2Sc2ccccc2)C1` (configuration not stated), the RP-LC retention time came to 1110 s.

Regarding `CCn1cnc2cc(CNC(=O)c3ccsc3)ccc21`, the RP-LC retention time amounted to 572 s.

In turn, `COc1ccc(CNC(=O)C2(C)CCCN(S(=O)(=O)c3ccccc3F)C2)cc1` (configuration not stated) had an RP-LC retention time of 900 s.

Consider `CCCCn1cnc2c(-c3ccccc3)cn(CC(=O)NC(C)C)c2c1=O`, for which the RP-LC retention time was 905 s.

`Cc1nn(CCCC(=O)N2CCOCC2)c(=O)c2nn(-c3ccccc3)c(C)c12` came in with an RP-LC retention time of 673 s.

In the case of `COc1cccc(-c2csc(Cc3nc(-c4cccs4)no3)n2)c1`, the RP-LC retention time came out at 1020 s.

With `COc1ccc(CNC(=O)N2CCN(Cc3nc4cc(-c5ccccc5)ccc4o3)CC2)cc1`, the RP-LC retention time worked out at 812 s.

Regarding `CCn1c(=O)sc2cc(S(=O)(=O)N3CCC(C(=O)NC4CCCCCC4)CC3)ccc21`, the RP-LC retention time was 937 s.

`Cc1c(C(=O)NC2CC2)cnn1-c1ccc(-c2nc(C3CC3)no2)cn1`: the RP-LC retention time is 825 s.

For `O=C1CC(c2noc(C3CCCC3)n2)CN1c1ccccc1` (configuration not stated), the RP-LC retention time amounted to 917 s.

As to `CC(C)CN(C[C@@H](O)[C@H](Cc1ccccc1)NC(=O)O[C@H]1CO[C@H]2OCC[C@H]21)S(=O)(=O)c1ccc(N)cc1`, the RP-LC retention time was determined as 830 s.

In turn, `O=C(Cn1cnc2c(sc3nc(-c4ccccc4)ccc32)c1=O)Nc1ccc2c(c1)OCCO2` had an RP-LC retention time of 948 s.

Take `CCN(CC)C(=O)c1cc(C)nc2c1c(=O)n(Cc1ccccc1)c(=O)n2C`: the RP-LC retention time was determined as 884 s.

With `CCCCC(=O)N1CCN(c2nc3ccccc3n(CC(C)C)c2=O)CC1`, the RP-LC retention time amounted to 1110 s.

`CCOc1cccc(-c2noc(CN3C(=O)COc4ccc(C(C)(C)C)cc43)n2)c1` had an RP-LC retention time of 1380 s.

`CCOC(=O)c1nc(N(C)c2ccccc2F)c2ccccc2n1` yielded an RP-LC retention time of 931 s.

`COc1cccc(CNC(=O)c2nc3cccnc3n(CC(C)C)c2=O)c1`: the RP-LC retention time came out at 850 s.

`COc1ccc(Cn2c(=O)c3ccnn3c3ccc(C(=O)O)cc32)cc1` registered an RP-LC retention time of 777 s.

In the case of `CCn1ccc2cc(S(=O)(=O)N3CCC(C(=O)N4CCN(c5ccccc5)CC4)CC3)ccc21`, the RP-LC retention time turned out to be 671 s.

With `Cc1ccc(S(=O)(=O)N2CCC(CCNC(=O)NCCc3ccccc3)CC2)cc1`, the RP-LC retention time stood at 924 s.

As to `C=CCc1cc(OC)ccc1OCC(O)CN1CCN(C(=O)OCC)CC1` (configuration not stated), the RP-LC retention time worked out at 592 s.

The compound `CNC(=O)c1noc([C@@H]2CC(F)(F)CN2Cc2cccn2C)n1` showed an RP-LC retention time of 590 s.

`O=C(Nc1ccccc1F)N1CC(Oc2ccc(-c3nc(-c4ccccc4)no3)cc2)C1` yielded an RP-LC retention time of 1130 s.

In the case of `O=C(Cn1cccc(-c2nc(-c3ccc(Br)cc3)no2)c1=O)Nc1ccccc1`, the RP-LC retention time stood at 968 s.

For the compound `CC(C)N1C(=O)C(C)(C(=O)NCc2cccc(Br)c2)Oc2cccnc21` (configuration not stated), the RP-LC retention time turned out to be 1030 s.

As to `N#Cc1ccccc1NC(=O)CSc1cc(N2CCN(c3ccccc3F)CC2)ncn1`, the RP-LC retention time worked out at 1120 s.

In turn, `CCOc1ccc(-c2nc(NC(=O)Cc3csc(COc4cc(C)ccc4C)n3)sc2C)cc1` gave an RP-LC retention time of 1350 s.

Compound `O=C(NC1CCCCC1)C1CCN(Cc2cc3ccccc3n2Cc2ccccc2Cl)CC1` displayed an RP-LC retention time of 847 s.

On to `O=S(=O)(c1ccc(Cl)c(-c2nnc(-c3ccccc3)o2)c1)N1CCN(c2ccccn2)CC1`, for which the RP-LC retention time was found to be 802 s.

On to `O=C(CSc1nc2ccsc2c(=O)n1-c1ccccc1)Nc1ncn[nH]1`, for which the RP-LC retention time was 655 s.

Turning to `CN(C)CCNc1ccc(-c2nc(-c3cccc(F)c3)no2)cn1`, the RP-LC retention time was 678 s.

As to `COCc1ncc(C)n1CC1CCN(S(=O)(=O)c2cccc3nsnc23)CC1`, the RP-LC retention time was 641 s.

`COc1ccc(OC)c(S(=O)(=O)Nc2ccc3c(c2)CCC(=O)N3C)c1`: the RP-LC retention time stood at 675 s.

In the case of `Cc1cccc(NC(=O)N2CCN(c3cnn4c(C5CC5)nnc4c3)CC2)c1`, the RP-LC retention time was found to be 647 s.

In the case of `COc1ccc(N2C=C(C(=O)N3CCOCC3)S(=O)(=O)c3ccccc32)cc1OC`, the RP-LC retention time is 695 s.

Regarding `CCCNC(=O)C1CCCN(c2nc3ncn(CC(=O)Nc4ccc(F)c(F)c4)c(=O)c3s2)C1` (configuration not stated), the RP-LC retention time was 708 s.

As to `Cc1nc(N2CCCC2)c2c(C(=O)Nc3ccc(C)c(C)c3)c(C)oc2n1`, the RP-LC retention time amounted to 830 s.
